Assay results reported in US10100077B2, “6-aryl-9-glycosylpurines and use thereof” (UNIVERZITA PALACKEHO V OLOMOUCI, priority 2014, dated 2018).

Legend:
[1] = test system: skin fibroblasts BJ and keratinocytes HaCaT; test: MTT in vitro cytotoxicity test for skin cells; type: cell-based; details: for IC50: Homo sapiens, MTT, 72 hour treatment, BJ and HaCaT, maximal concentration 50 microM
Method: MTT assay is a standard test of toxicity based on photometric measurement of the ability of metabolically active cells to reduce MTT (3-(4,5-dimethylthiazol-2-yl)-2,5-diphenyltetrazolium bromide). Using the assay, the effects of 72 hour treatments with several concentrations of the compounds (sixfold dilution, maximal concentration=50 microM) on viability of skin fibroblasts BJ and keratinocytes HaCaT were evaluated. About 5,000 cells were seeded per well of a 96-well plate 24 hours before the treatment. DMSO vehiculum was used as a negative control. After 72 hour treatment, new medium with MTT (Sigma, M2128) was added to a final concentration of 0.5 mg/ml. After 3 hours, medium was removed and resulting formazan in the cells was dissolved in DMSO. The absorbance was measured at 570 nm (640 nm reference wavelength). The IC50 values were calculated from the dose-response curves. 6-Benzylaminopurine riboside and 6-furfurylaminopurine riboside were used as positive controls they were toxic in the MTT test.

[2] = Calcein AM cytotoxicity assay, MCF-7; type: cell-based; details: human, MCF-7 breast cancer cells
Description: (§1) One of the parameters used as the base for cytotoxic analysis is metabolic activity of viable cells, such as microtiter assay, which uses the Calcein AM, is now widely used to quantitate cell proliferation and cytotoxicity. The quantity of reduced Calcein AM corresponds to the number of viable cells in culture. The cell lines of breast cancer (MCF-7), mousse fibroblasts (NIH3T3), human erythromleukemia (K562) were used for routine screening of cytotoxicity of the compounds. The cells were maintened in Nunc/Corning 80 cm^2 plastic bottles and grown in media for cell culture (DMEM containing 5 g/l of glucose, 2 mM of glutamin, 100 U/ml of penicilin, […] of streptomycin, 10% of fetal bovine serum and sodium hydrogencarbonate). Cell suspensions were diluted according to cell types and according to expected final cell density (10^4 of cells per well according to characteristics of cell growth), pipetted 80 μl of cell suspension on 96-well microtiter plates. Innoculates were stabilized by 24 hrs preincubation at 37° C. in CO2. Particular concentrations of tested compounds were added in time zero as 20 μl aliquotto wells of microtiter plates. Usually, the compounds were diluted into six concentrations in four-fold dilution series. In routine testing, the highest well concentration was 166.7 μM, of change dependent on the substance. All drug concentrations were examined in duplicates. The incubation of cells with tested derivatives lasted 72 hrs at 37° C., 100% humidity and in the atmosphere of CO2. At the end of the incubation period, the cells were tested and analysed according to the addition of Calcein AM (Molecular probes) solution and the incubation lasted for next 1 hour. Fluorescence (FD) was measured using Labsystem FIA reader Fluorskan Ascent (Microsystems). The survival of tumor cells (The tumor cell survival-TCS) was counted according to equation: […]=(FDwell with derivative/FDcontrol well)×100%. The value of GI50, that is equal to the concentration of compound at which 50% of tumour cells are terminated. To evaluate the antitumor activity was tested toxicity of new derivatives on panel of cell lines of different histogenetic and species origin (Tab. 7, G150 concentration given in μM). […] Effective derivatives killed tumor cells in concentrations close to 0.1 to 50. None of the newly prepared compounds only reached the value.

[3] = Calcein AM cytotoxicity assay, K562; type: cell-based, human; details: human, K562 erythroleukemia cells
Description: as §1

[4] = test system: skin fibroblasts BJ and keratinocytes HaCaT; test: SRB in vitro toxicity test; type: cell-based; details: Homo sapiens, 72 hour treatment, maximal concentration 50 microM
Method: SRB (sulforhodamine B) assay is a standard toxicity test based on a photometric measurement of the cellular protein content after the staining with sulphorhodamine B. Using the assay, the effects of 72 hour treatments with several concentrations of the compounds (sixfold dilution, maximal concentration=50 microM) on viability of skin fibroblasts BJ and keratinocytes HaCaT were evaluated. About 5,000 cells were seeded per well of a 96-well plate 24 hours before the treatment. DMSO vehiculum was used as a negative non-toxic control. 6-benzylaminopurine riboside a 6-furfurylaminopurin riboside were used as positive toxic controls. After three days the medium was removed and the cells fixed with 10% (wt/vol) trichloroacetic acid. After the extensive washing in distilled water, 0.4% (wt/vol) solution of SRB in acetic acid was added and the fixed cells were stained for 30 minutes. The unbound stain was washed away by distilled water and the bound SRB was solubilized in unbuffered 10 mM Tris base. Absorbance was measured at 564 nm. IC50 values were calculated from dose-response curves.

[5] = Calcein AM cytotoxicity assay, NIH3T3; type: cell-based, mouse; details: mouse, NIH3T3 fibroblasts
Description: as §1

[6] = test system: detached leaf segments of Triticum aestivum cv. Hereward; test: Senescence bioassay on wheat leaf segments (chlorophyll retention); details: for activity (%) [10^−4 mol · l^−1 BAP = 100%]: chlorophyll retention at maximum effective concentration, 96 h dark
Method: Seeds of winter wheat, Triticum aestivum cv. Hereward, were washed under running water for 24 hours and then sown on vermiculite soaked with Knop's solution. They were placed in the growth chamber at 25° C. with a 16/8 h light period at 50 μmol·m^−2·s^−1. After 7 days, the first leaf was fully developed and the second leaf had started to grow. A tip section of the first leaf, approximately 35 mm long, was removed from 5 seedlings and trimmed slightly to a combined weight of 100 mg. The basal ends of the five leaf tips were placed in the wells of a microtiter polystyrene plate containing 150 μL, of the tested derivative solution each. The entire plate was inserted into a plastic box lined with paper tissues soaked in distilled water to prevent leaf sections from drying out. After 96 h incubation in the dark at 25° C., the leaves were removed and chlorophyll extracted by heating at 80° C. for 10 min in 5 mL of 80% ethanol (v/v). The sample volume was then restored to 5 mL by the addition of 80% ethanol (v/v). The absorbance of the extract was recorded at 665 nm. In addition, chlorophyll extracts from fresh leaves and leaf tips incubated in deionised water were measured. The results are means of five replicates and the entire test was repeated twice. […] The compounds to be tested were dissolved in dimethylsulfoxide (DMSO) and the solution brought up to 10^−3M with distilled water. This stock solution was further diluted with the respective media used for the biotest to a concentration ranging from 10^−8M to 10^−4M. […] The activity obtained for 10^−4 M of BAP was postulated as 100%.

[7] = test system: EpiDERM 3D model of epidermis; test: In vitro test of skin irritation in EpiDERM; type: cell-based
Method: EpiDERM™ is a 3D model of epidermis manufactured by Mattek company. The effects of tested substances are evaluated by MTT. 2 solutions (2 application forms) of the compounds 6-furfurylamino-9-β-D-arabinofuranosylpurine and 6-(3-methoxybenzylamino)-9-β-D-arabinofuranosylpurine in concentrations 1 mM a 200 microM in 0.5% DMSO/99.5% PBS were evaluated according to a standard protocol “INVITRO EpiDerm™ SKIN IRRITATION TEST”. After a preincubation of the tissues, 30 microliters of the application form solution were applied on the individual tissues. The exposition time was 60 minutes. Three tissues were used for each tested concentration as well as for controls. Following washing out of the applied solution, the tissues were incubated for 42 hour in order to allow a reparation of possible damage. In the next step, the tissue was incubated with MTT for 3 hours. The resulting formazan was extracted to isopropanol. Relative viability of the individual tissues was calculated as a percentage of viability of the average of the negative controls. Average viability of the tissues treated with 1 mM solution of the test substance was 99.3% for the compound 6-(3-methoxybenzylamino)-9-β-D-arabinofuranosylpurine and 98.0% for the compound 6-(furfurylamino)-9-β-D-arabinofuranosylpurine where 100% is an average viability of the tissues treated with the solvent only. None of the tested compounds in any of the concentrations caused any tissue damage or irritation. The compounds were evaluated as non-irritant in the tested concentrations.

[8] = test system: breast cancer (MCF-7); test: Calcein AM cytotoxicity assay, MCF-7; type: cell-based; details: 72 hrs
Description: as §1

[9] = test system: human erythromleukemia (K562); test: Calcein AM cytotoxicity assay, K562; type: cell-based; details: 72 hrs
Description: as §1

[10] = test system: mousse fibroblasts (NIH3T3); test: Calcein AM cytotoxicity assay, NIH3T3; type: cell-based, mouse; details: 72 hrs
Description: as §1

[11] = test system: Vaccinia virus, strain IHD; details: cited from earlier work
[12] = test system: Vaccinia virus and Herpes simplex virus; details: cited from earlier work

Compound: OC[C@H]1O[C@@H](n2cnc3c(NCc4ccco4)ncnc32)[C@@H](O)[C@@H]1O [6-furfurylamino-9-β-D-arabinofuranosylpurine]
- IC50 [1]: > 50 µM
- GI50 at 72 h [2]: > 100 µM
- GI50 at 72 h [3]: > 100 µM
- IC50 [4]: > 50 µM
- GI50 at 72 h [5]: > 100 µM
- activity (%) [10^−4 mol · l^−1 BAP = 100%] [6]: 193 ± 1%
- skin irritation evaluation ([7]; 1 mM and 200 microM in 0.5% DMSO/99.5% PBS): non-irritant
- Average viability of the tissues ([7]; 1 mM solution, 60 minutes exposition, 100% = solvent only): 98.0%

Compound: OC[C@H]1O[C@@H](n2cnc3c(NCc4cccc(Cl)c4)ncnc32)[C@@H](O)[C@@H]1O [6-(3-chlorobenzylamino)-9-β-D-arabinofuranosylpurine]
- IC50 [1]: > 50 µM
- GI50 at 72 h [2]: > 100 µM
- GI50 at 72 h [3]: > 100 µM
- IC50 [4]: 48 µM
- GI50 at 72 h [5]: > 100 µM
- activity (%) [10^−4 mol · l^−1 BAP = 100%] [6]: 172 ± 8%

Compound: OC[C@H]1O[C@@H](n2cnc3c(NCc4ccccc4)ncnc32)C[C@@H]1O [6-benzylamino-9-β-D-deoxyribosylpurine]
- GI50 [8]: > 100 µM
- GI50 [9]: > 100 µM
- GI50 [10]: > 100 µM
- maximum effective concentration ([6]; 96 h in the dark at 25° C.): 10^−4 mol · l^−1
- activity (%) [10^−4 mol · l^−1 BAP = 100%] [6]: 178 ± 9%

Compound: Cc1ccc(CNc2ncnc3c2ncn3C2OC(CO)C(O)C2O)c(C)c1 (centres unmarked) [2,4-dimethylbenzyl]
- activity against Vaccinia virus, strain IHD [11]: low activity

Compound: Cc1cccc(CNc2ncnc3c2ncn3[C@@H]2O[C@H](CO)[C@@H](O)[C@@H]2O)c1 [3-methylbenzylamino-9-β-D-arabinofuranosylpurine]
- GI50 [8]: > 100 µM
- GI50 [9]: > 100 µM
- GI50 [10]: > 100 µM
- activity in killing Vaccinia virus and Herpes simplex virus [12]: No effect

Compound: OC[C@H]1OC(n2cnc3c(NCc4ccccc4)ncnc32)[C@H](O)[C@@H]1O (some centres unmarked) [6-benzylaminopurin9-ribosylpurine, 6-benzylamino-9-ribosylpurine, reference compound]
- IC50 [1]: ≤ 3 µM
- toxicity in the MTT test ([1]; positive controls): toxic
- GI50 at 72 h [2]: 5.4 µM
- GI50 at 72 h [3]: 5.5 µM
- GI50 at 72 h [5]: 39 µM

Compound: Cc1cccc(C)c1CNc1ncnc2c1ncn2[C@@H]1O[C@H](CO)[C@@H](O)[C@@H]1O [2,6-dimethylbenzyl]
- activity in killing Vaccinia virus and Herpes simplex virus [12]: No effect

Compound: Cc1ccc(C)c(CNc2ncnc3c2ncn3C2OC(CO)C(O)C2O)c1 (centres unmarked) [2,5-dimethylbenzyl]
- activity against Vaccinia virus, strain IHD [11]: low activity

Compound: Cc1cccc(CNc2ncnc3c2ncn3C2OC(CO)C(O)C2O)c1C (centres unmarked) [2,3-dimethylbenzyl]
- activity in killing Vaccinia virus and Herpes simplex virus [12]: No effect

Compound: OC[C@H]1O[C@@H](n2cnc3c(NCc4cccc(F)c4)ncnc32)[C@@H](O)[C@@H]1O [6-(3-fluorobenzylamino)-9-β-D-arabinofuranosylpurine]
- GI50 at 72 h [2]: > 100 µM
- GI50 at 72 h [3]: > 100 µM
- GI50 at 72 h [5]: > 100 µM
- activity (%) [10^−4 mol · l^−1 BAP = 100%] [6]: 195 ± 6%

Compound: Cc1ccc(CNc2ncnc3c2ncn3[C@@H]2O[C@H](CO)[C@@H](O)[C@@H]2O)cc1 [4-methylbenzylamino-9-β-D-arabinofuranosylpurine]
- GI50 [8]: 95 µM
- GI50 [9]: > 100 µM
- GI50 [10]: > 100 µM

Compound: Cc1ccc(CNc2ncnc3c2ncn3[C@@H]2O[C@H](CO)[C@@H](O)[C@@H]2O)cc1C [3,4-dimethylbenzyl]
- activity in killing Vaccinia virus and Herpes simplex virus [12]: No effect

Compound: Cc1ccccc1CNc1ncnc2c1ncn2[C@@H]1O[C@H](CO)[C@@H](O)[C@@H]1O [2-methylbenzylamino-9-β-D-arabinofuranosylpurine]
- GI50 [8]: > 100 µM
- GI50 [9]: > 100 µM
- GI50 [10]: > 100 µM
- activity in killing Vaccinia virus and Herpes simplex virus [12]: No effect

Compound: OC[C@H]1O[C@@H](n2cnc3c(NCc4cccc(F)c4)ncnc32)C[C@@H]1O [3-fluorobenzylamino-9-β-D-2′-deoxyribosylpurine]
- GI50 [8]: > 100 µM
- GI50 [9]: > 100 µM
- GI50 [10]: > 100 µM

Compound: 2,4-dimethoxybenzylamino-9-β-D-arabinofuranosylpurine
- GI50 [8]: 98 µM
- GI50 [9]: > 100 µM
- GI50 [10]: > 100 µM
